The values below come from US4448781A, “N-Benzyl-imidazoles as selective inhibitors of the thromboxane synthetase enzyme” (Pfizer Inc., priority 1979, dated 1984).

The target in experiment [1] is T1, prostacyclin synthetase (Sus scrofa, UniProt A0A5G2QT35).
T1 construct: Pig aorta microsomes; from tissue; host or cells: pig aorta (microsomes)
T1 sequence (A0A5G2QT35 1-497): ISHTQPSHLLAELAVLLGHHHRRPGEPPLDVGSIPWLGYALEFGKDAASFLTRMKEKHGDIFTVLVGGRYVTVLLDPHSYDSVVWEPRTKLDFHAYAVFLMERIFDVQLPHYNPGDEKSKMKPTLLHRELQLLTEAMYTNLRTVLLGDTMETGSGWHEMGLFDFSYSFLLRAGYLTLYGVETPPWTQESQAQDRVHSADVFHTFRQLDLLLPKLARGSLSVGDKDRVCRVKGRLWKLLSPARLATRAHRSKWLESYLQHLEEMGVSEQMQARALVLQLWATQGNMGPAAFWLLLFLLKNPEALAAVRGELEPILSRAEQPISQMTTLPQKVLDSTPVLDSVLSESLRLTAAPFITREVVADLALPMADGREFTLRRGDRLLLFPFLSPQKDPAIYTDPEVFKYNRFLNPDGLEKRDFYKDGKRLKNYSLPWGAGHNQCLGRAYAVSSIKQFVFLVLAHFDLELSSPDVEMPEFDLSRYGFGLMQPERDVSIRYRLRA
The conditions noted are these: pre-incubation of the enzyme; Prostaglandins, 1976, 12, 715; cited from earlier work.

Experiment [2] deals with cyclo-oxygenase enzyme. The conditions noted are these: cited from earlier work.
The test system of experiment [3] is arachidonic acid induced death in rabbits. The conditions noted are these: rabbit, intravenous injection of arachidonic acid; cited from earlier work.
The subject of experiment [4] is human blood platelet aggregation. As to conditions: human blood platelets; cited from earlier work.
Experiment [5] relates to prostacyclin and thromboxane A2 levels. As to conditions: cited from earlier work.
The target in experiment [6] is T2, thromboxane synthetase (Homo sapiens, UniProt P24557).
T2 construct: Indomethacin pre-treated human platelet microsomes; from tissue; host or cells: human blood platelets (microsomes)
T2 sequence (P24557 1-533): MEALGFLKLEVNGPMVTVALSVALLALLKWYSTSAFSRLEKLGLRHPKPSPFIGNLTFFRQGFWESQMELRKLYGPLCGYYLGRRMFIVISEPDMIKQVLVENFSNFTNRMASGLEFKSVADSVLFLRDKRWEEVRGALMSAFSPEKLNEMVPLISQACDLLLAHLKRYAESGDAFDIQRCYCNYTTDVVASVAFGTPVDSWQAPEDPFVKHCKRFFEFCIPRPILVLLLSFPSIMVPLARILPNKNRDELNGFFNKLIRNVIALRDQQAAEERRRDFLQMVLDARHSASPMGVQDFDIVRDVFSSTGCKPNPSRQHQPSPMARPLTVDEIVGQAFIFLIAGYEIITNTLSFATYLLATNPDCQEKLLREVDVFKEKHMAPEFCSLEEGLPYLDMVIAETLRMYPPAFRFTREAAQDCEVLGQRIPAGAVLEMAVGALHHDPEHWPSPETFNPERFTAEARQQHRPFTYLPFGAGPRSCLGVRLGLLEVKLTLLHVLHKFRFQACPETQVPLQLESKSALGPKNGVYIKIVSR
Briefly: Thromboxane A2 (TxA2) synthetase inhibition (indomethacin pre-treated human platelet microsomes, rabbit aorta superfusion bioassay). The format is biochemical. As to conditions: 5 min pre-incubation, isometric tension of rabbit aorta, read-out: Molar concentration causing 50% inhibition of (1) thromboxane synthetase. The protocol: 3. Thromboxane A2 (TxA2) Synthetase
Indomethacin pre-treated human platelet microsomes (Science 1976, 193, 163) are incubated (2 min.: 0° C.) with PGH2 (produced as in 1) and aliquots of the reaction mixture superfused over two rabbit aorta spirals which are separated by a delay coil (2 min.). The latter is required to allow the selective decay of the more unstable thromboxane A2 (Proc. Nat. Acad. Sci., 1975, 72, 2994) thereby enabling the separate measurement of increased isometric tension due to the TxA2 formed and the PGH2 remaining. The test compound is pre-incubated with the enzyme for 5 minutes, and its ability to inhibit the thromboxane synthetase enzyme is measured as its reduction of the TxA2 component of the isometric tension.
(§1) The results of these tests are shown in the following Table, which gives the molar concentration of each compound which caused a 50% change in the effect of the relevant enzyme on isometric tension, i.e. caused a 50% inhibition of the action of that enzyme.

Experiment [7] concerns the target T1, prostacyclin synthetase. Briefly: Prostacyclin (PGI2) synthetase inhibition (pig aorta microsomes, rabbit aorta bioassay). The format is biochemical. As to conditions: 5 min pre-incubation, isometric tension of rabbit aorta, read-out: Molar concentration causing 50% inhibition of (3) prostacyclin synthetase. The protocol:
2. Prostacyclin (PGI2) Synthetase
Pig aorta microsomes (Nature, 1976, 263, 663) are incubated (30 sec.: 22° C.) with PGH2 produced as in 1) and aliquots bio-assayed as in 1. […] The test compound is then pre-incubated with the enzyme for 5 minutes, and its ability to prevent the decrease in tension is measured.
as §1

Experiment [8] addresses T3, cyclo-oxygenase (Ovis aries, UniProt P05979).
T3 construct: Ram seminal vesicle microsomes; from tissue; host or cells: ram seminal vesicle (microsomes)
T3 sequence (P05979 25-600): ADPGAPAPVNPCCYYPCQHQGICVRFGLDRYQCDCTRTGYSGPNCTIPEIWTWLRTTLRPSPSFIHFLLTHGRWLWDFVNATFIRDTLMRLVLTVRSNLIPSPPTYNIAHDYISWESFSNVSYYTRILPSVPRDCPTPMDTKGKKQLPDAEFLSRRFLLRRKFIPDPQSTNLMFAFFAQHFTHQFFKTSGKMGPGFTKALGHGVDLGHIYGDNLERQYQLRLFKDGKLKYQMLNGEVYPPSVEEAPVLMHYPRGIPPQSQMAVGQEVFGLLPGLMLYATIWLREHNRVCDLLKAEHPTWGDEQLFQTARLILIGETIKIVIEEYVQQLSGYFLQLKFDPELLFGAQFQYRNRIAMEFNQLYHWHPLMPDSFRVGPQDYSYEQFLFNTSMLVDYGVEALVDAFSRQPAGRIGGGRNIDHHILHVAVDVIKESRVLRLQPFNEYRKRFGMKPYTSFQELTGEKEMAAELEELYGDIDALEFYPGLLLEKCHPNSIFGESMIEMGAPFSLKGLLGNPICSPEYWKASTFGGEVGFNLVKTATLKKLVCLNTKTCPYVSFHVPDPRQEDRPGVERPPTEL
The experiment is described as follows: Cyclo-oxygenase inhibition (ram seminal vesicle microsomes, rabbit aorta strip bioassay). The format is biochemical. The conditions noted are these: 5 min pre-incubation, isometric tension of rabbit aorta, read-out: Molar concentration causing 50% inhibition of (2) cyclo-oxygenase. The protocol:
Ram seminal vesicle microsomes (Biochemistry, 1971, 10, 2372) are incubated with arachidonic acid (100 μM: 1 min.: 22°) to produce PGH2 and aliquots of the reaction mixture injected into a stream of Krebs-bicarbonate at 37° C. (containing a mixture of antagonists (Nature, […], 218, 1135) and indomethacin (Brit. J. Pharmacol., 1972, 45, 451) which is superfusing a spirally-cut rabbit aorta strip (Nature, 1969, 223, 29). The ability of a compound to inhibit the enzyme is measured by comparing the increases in isometric tension produced by PGH2 in the absence of the test compound, and following pre-incubation of the enzyme with the test compound for 5 minutes.
as §1

Experiment [9] relates to aggregation of platelets. As to conditions: rats, abdominal aorta, in vivo; cited from earlier work.

Where a name gives a salt, the structure may show the parent alone.

15-hydroperoxy-arachidonic acid: the “prevention of the decrease in PGH2-induced tension (PGI2 synthetase inhibition, in words)” value in [1] was “prevented completely”.
As to `CC(=O)Oc1ccccc1C(=O)O` [Aspirin], the “inhibition of the cyclo-oxygenase enzyme (in words)” value in experiment [2] was “inhibit the cyclo-oxygenase enzyme”. Moreover, the “protection from the lethal effect of intravenous arachidonic acid” value in [3] is “protect the rabbit from the lethal effect of the injection”. Moreover, the “inhibitory activity in vitro against a variety of aggregating agents” value in [4] was “show inhibitory activity in vitro against a variety of aggregating agents”. Also, the “effect on prostacyclin and thromboxane A2 levels (in words)” value in experiment [5] was “reduce both the prostacyclin and thromboxane A2 levels”.
As to `Cc1ccc(OCC(=O)O)c(Cn2ccnc2)c1` [Example 2, 2-(1-Imidazolylmethyl)-4-methyl-phenoxyacetic acid hydrochloride hemihydrate], the figures for the IC50 in experiment [6], in [7] and in experiment [8] were 0.0082 µM, more than 100 µM and more than 100 µM, respectively.
Regarding `Cc1ccc(OCCCC(N)=O)c(Cn2ccnc2)c1` [Example 4, 4-[2-(1-Imidazolylmethyl)-4-methyl-phenoxy]butyramide], the IC50 in experiment [6] is 0.0024 µM; in experiment [8], more than 100 µM.
In the same order, the values of `Cc1ccc(OCc2ccc(C(=O)O)cc2)c(Cn2ccnc2)c1` [Example 5, 4-[2-(1-Imidazolylmethyl)-4-methyl-phenoxymethyl]benzoic acid] are 0.047 µM and more than 100 µM.
Turning to `NC(=O)COc1ccc(Cn2ccnc2)cc1` [Example 8, 4-(1-Imidazolylmethyl)phenoxyacetamide], the values for the IC50 in [6] and in [8] were 0.046 µM and more than 100 µM, respectively.
`O=C(O)COc1cccc(Cn2ccnc2)c1` [Example 24, 3-(1-Imidazolylmethyl)phenoxyacetic acid hydrochloride]: in experiment [6], the IC50 turned out to be 0.0045 µM.
As for `O=C1C(CC[S+]([O-])c2ccccc2)C(=O)N(c2ccccc2)N1c1ccccc1` (stereo not drawn) [sulphinpyrazone], the “protection from the lethal effect of intravenous arachidonic acid” value in experiment [3] is recorded as “protect the rabbit from the lethal effect of the injection”. The “prevention of the aggregation of platelets in an extra corporeal loop” value in experiment [9] is recorded as “prevent the aggregation of platelets”. Besides, the “inhibitory activity in vitro against a variety of aggregating agents” value in experiment [4] is reported as “show inhibitory activity in vitro against a variety of aggregating agents”.
